10 molecules from ChEMBL document CHEMBL1201862, “PubChem BioAssay data set” (2004) can be followed below.

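Where inhibition never reached the appropriate level, the endpoint shown equals the highest concentration tested. Otherwise, values were interpolated linearly from a five-concentration, 48-hour dose response in 96-well plates. GI50 = concentration required for 50% inhibition of growth.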 Active and inactive are the calls of the source. No stated cut-off is given here; in the data, active = GI50 up to about 1.1 µM and inactive = higher.

Test systems include SK-MEL-5; NCI-H23; OVCAR-3; Malme-3M; ACHN; NCI/ADR-RES; T47D; OVCAR-4; MDA-MB-231; SR; HL-60; IGROV-1; UACC-257; 786-0; CAKI-1; UACC-62; OVCAR-8; PC-3; NCI-H226; NCI-H522.
What all share (assay): inhibition of tumour cell growth, NCI panel, 48 h

Regarding `Cc1cccc2c(=O)c3cccc([C@H](C)C(=O)O)c3oc12`, the GI50 with SK-MEL-5, in the assay with NCI-H23, with OVCAR-3, in the assay with Malme-3M, with ACHN and in the assay with NCI/ADR-RES was > 100 µM (inactive) throughout. Moreover, the GI50 in the assay on T47D, in the assay on OVCAR-4, in the assay with MDA-MB-231, in the assay with SR, with HL-60 and with IGROV-1 was > 100 µM (inactive) each time. For the same molecule, the GI50 in the assay with UACC-257, in the assay on 786-0, in the assay with CAKI-1, in the assay with UACC-62, with OVCAR-8 and in the assay with PC-3 was > 100 µM (inactive) in each case. For the same molecule, the GI50 in the assay on NCI-H226 and in the assay with NCI-H522 was > 100 µM (inactive) throughout.

As to `COc1cc2ccc1OCc1cccc(n1)COc1ccc(cc1OC)/C=N\CCNCCNCC/N=C\2`, the GI50 with SK-MEL-5, with NCI-H23, in the assay on OVCAR-3, in the assay with Malme-3M, in the assay with ACHN and in the assay with NCI/ADR-RES was > 100 µM (inactive) each time. The GI50 in the assay on T47D was > 100 µM (inactive); in the assay on OVCAR-4, > 100 µM (inactive); in the assay on MDA-MB-231 it was > 100 µM (inactive); in the assay on SR, > 100 µM (inactive); in the assay with HL-60, 53.5 µM (inactive); in the assay with IGROV-1, > 100 µM (inactive). Further, the GI50 in the assay on UACC-257, in the assay with 786-0, with CAKI-1, in the assay on UACC-62, in the assay with OVCAR-8 and in the assay with PC-3 was > 100 µM (inactive) each time. For the same molecule, the GI50 with NCI-H226 and in the assay with NCI-H522 was > 100 µM (inactive) in each case.

For `CC(=O)O[C@H]1CC[C@@]2(C)C(=CC[C@@H]3[C@@H]2CC[C@]2(C)c4c(cc(C#N)c(=N)n4C(C)=O)C[C@@H]32)C1`, the GI50 was 15.5 µM (inactive) in the assay on SK-MEL-5; 15.3 µM (inactive) in the assay on NCI-H23; 17.6 µM (inactive) in the assay with OVCAR-3; 17.2 µM (inactive) in the assay with Malme-3M; 20.1 µM (inactive) in the assay on ACHN; 17.2 µM (inactive) with NCI/ADR-RES. Besides, the GI50 in the assay on T47D was 17.6 µM (inactive); in the assay on OVCAR-4, 18.7 µM (inactive); with MDA-MB-231 it was 31.1 µM (inactive); in the assay with SR it was 23.8 µM (inactive); with HL-60, 14.6 µM (inactive); with IGROV-1 it was 22.2 µM (inactive). The GI50 with UACC-257 was 19.1 µM (inactive); with 786-0, 20.5 µM (inactive); with CAKI-1, 30.8 µM (inactive); with UACC-62, 15.7 µM (inactive); in the assay on OVCAR-8 it was 16.7 µM (inactive); in the assay with PC-3, 21.5 µM (inactive). For the same molecule, the figures for the GI50 in the assay on NCI-H226 and in the assay with NCI-H522 were 27.4 µM (inactive) and 17.9 µM (inactive), respectively.

In the case of `COc1ccc(C2SCC(=O)N2NC(=O)C(C)Oc2ccccc2C)cc1` (stereo not given), the GI50 in the assay with SK-MEL-5 is 53 µM (inactive); in the assay with NCI-H23 it was 55.6 µM (inactive); in the assay with OVCAR-3, > 100 µM (inactive); in the assay with Malme-3M, > 100 µM (inactive); with ACHN, 68.5 µM (inactive); in the assay with NCI/ADR-RES, 65.2 µM (inactive). The GI50 in the assay with T47D was 46.3 µM (inactive); in the assay on OVCAR-4, > 100 µM (inactive); in the assay with MDA-MB-231 it was 47.5 µM (inactive); with SR, 28.2 µM (inactive); with HL-60, 28.7 µM (inactive); in the assay on IGROV-1, > 100 µM (inactive). The GI50 in the assay with UACC-257 was > 100 µM (inactive); in the assay on 786-0, > 100 µM (inactive); in the assay on CAKI-1, > 100 µM (inactive); in the assay on UACC-62, 80.2 µM (inactive); in the assay with OVCAR-8, > 100 µM (inactive); in the assay with PC-3 it was > 100 µM (inactive). Besides, the GI50 with NCI-H226 is > 100 µM (inactive); with NCI-H522 it was 56.6 µM (inactive).

`c1ccc(C2=Nc3cccc4cccc(c34)N2)cc1`: the GI50 in the assay with SK-MEL-5 was 56.2 µM (inactive); in the assay with NCI-H23 it was > 60.5 µM (inactive); in the assay on OVCAR-3 it was 23.7 µM (inactive); in the assay on Malme-3M it was 43.5 µM (inactive); in the assay with ACHN, 26.2 µM (inactive); in the assay with NCI/ADR-RES, 30.8 µM (inactive). Moreover, the GI50 with T47D was 4.63 µM (inactive); in the assay with OVCAR-4, 18.7 µM (inactive); in the assay on MDA-MB-231, 19.7 µM (inactive); with SR it was 9.48 µM (inactive); with HL-60, 2.88 µM (inactive); with IGROV-1, > 54.6 µM (inactive). In addition, the GI50 with UACC-257 was > 69.5 µM (inactive); with 786-0, 42.8 µM (inactive); with CAKI-1 it was 37.2 µM (inactive); with UACC-62, 37.9 µM (inactive); in the assay on OVCAR-8, 35.5 µM (inactive); in the assay with PC-3 it was 22.8 µM (inactive). Further, the GI50 in the assay with NCI-H226 is > 78.3 µM (inactive); with NCI-H522, 12.2 µM (inactive).

As for `CCOC(=O)CCNC(=O)c1cc(C)cc2c1Oc1c(cc(C)cc1C(=O)NCCC(=O)OCC)S2`, the GI50 was 35.9 µM (inactive) in the assay with SK-MEL-5; > 100 µM (inactive) in the assay on NCI-H23; > 100 µM (inactive) in the assay on OVCAR-3; > 100 µM (inactive) in the assay with Malme-3M; > 100 µM (inactive) in the assay on ACHN; 44.6 µM (inactive) in the assay on NCI/ADR-RES. The GI50 with T47D is 28.8 µM (inactive); in the assay with OVCAR-4, > 100 µM (inactive); in the assay on MDA-MB-231, 25.2 µM (inactive); with SR, > 100 µM (inactive); with HL-60 it was > 100 µM (inactive); with IGROV-1 it was > 100 µM (inactive). Moreover, the GI50 with UACC-257 is 79.6 µM (inactive); with 786-0, 50 µM (inactive); in the assay with CAKI-1 it was 65.6 µM (inactive); in the assay on UACC-62, 38.5 µM (inactive); in the assay with OVCAR-8 it was 78.3 µM (inactive); in the assay with PC-3 it was > 100 µM (inactive). The values for the GI50 with NCI-H226 and in the assay on NCI-H522 were 81.7 µM (inactive) and 40.6 µM (inactive), respectively.

Turning to `N#Cc1c(-c2nc3ccccc3s2)c(=O)oc2cc(O)ccc12`, the GI50 was 10.2 µM (inactive) with SK-MEL-5; 24.8 µM (inactive) in the assay with NCI-H23; 2.25 µM (inactive) in the assay on OVCAR-3; 18.3 µM (inactive) in the assay with Malme-3M; 25 µM (inactive) in the assay on ACHN; 32.4 µM (inactive) with NCI/ADR-RES. Also, the GI50 with T47D was 17.7 µM (inactive); in the assay with OVCAR-4, 23.1 µM (inactive); in the assay on MDA-MB-231, 22.9 µM (inactive); in the assay with SR it was 37.3 µM (inactive); in the assay with HL-60 it was 23.5 µM (inactive); with IGROV-1, 15.3 µM (inactive). The GI50 was 24.3 µM (inactive) in the assay on UACC-257; 26.4 µM (inactive) with 786-0; 17.5 µM (inactive) in the assay on CAKI-1; > 100 µM (inactive) in the assay with UACC-62; 32.1 µM (inactive) in the assay with OVCAR-8; 34.4 µM (inactive) in the assay with PC-3. Further, the values for the GI50 in the assay with NCI-H226 and with NCI-H522 were 41 µM (inactive) and 13.2 µM (inactive), respectively.

As to `O=C1N[C@@H]2O[C@H](CNC(=O)c3cc(Br)c[nH]3)C[C@]2(O)N1.O=C1N[C@H]2O[C@H](CNC(=O)c3cc(Br)c[nH]3)C[C@@]2(O)N1`, the GI50 in the assay on SK-MEL-5, in the assay with NCI-H23, with OVCAR-3, with Malme-3M, with ACHN and with NCI/ADR-RES was > 100 µM (inactive) each time. Besides, the GI50 is > 100 µM (inactive) in the assay with T47D; > 100 µM (inactive) with OVCAR-4; > 100 µM (inactive) with MDA-MB-231; 0.379 µM (active) in the assay on SR; > 100 µM (inactive) with HL-60; > 100 µM (inactive) in the assay with IGROV-1. Moreover, the GI50 with UACC-257, in the assay on 786-0, with CAKI-1, with UACC-62, with OVCAR-8 and in the assay with PC-3 was > 100 µM (inactive) in each case. The GI50 in the assay with NCI-H226 and with NCI-H522 was > 100 µM (inactive) each time.

Consider `COc1cc(C2S/C(=C/c3ccccc3)C(=O)N2c2ccccn2)cc(OC)c1OC` (stereo not given), for which the GI50 is 20.2 µM (inactive) with SK-MEL-5; 13.7 µM (inactive) in the assay on NCI-H23; 12.4 µM (inactive) with OVCAR-3; 13.4 µM (inactive) with Malme-3M; 10.5 µM (inactive) in the assay on ACHN; 19.5 µM (inactive) with NCI/ADR-RES. The GI50 in the assay on T47D was 7.35 µM (inactive); in the assay with OVCAR-4, 19.2 µM (inactive); in the assay with MDA-MB-231 it was 24.8 µM (inactive); with SR it was 3.02 µM (inactive); in the assay on HL-60 it was 12.4 µM (inactive); in the assay on IGROV-1 it was 11 µM (inactive). Moreover, the GI50 was 33.1 µM (inactive) with UACC-257; 14.3 µM (inactive) with 786-0; 20.1 µM (inactive) in the assay on CAKI-1; 14.7 µM (inactive) with UACC-62; 9.2 µM (inactive) with OVCAR-8; 22.4 µM (inactive) in the assay with PC-3. The GI50 in the assay on NCI-H226 was 45.9 µM (inactive); in the assay with NCI-H522, 7.18 µM (inactive).

With `CN1C(=S)C(c2ccccc2)Sc2ccccc21` (stereo not given), the GI50 is 34.8 µM (inactive) in the assay on SK-MEL-5; 55.7 µM (inactive) with NCI-H23; 48.2 µM (inactive) in the assay with OVCAR-3; 97.7 µM (inactive) in the assay with Malme-3M; > 100 µM (inactive) in the assay with ACHN; > 100 µM (inactive) in the assay with NCI/ADR-RES. Further, the GI50 in the assay with T47D was 78.5 µM (inactive); in the assay on OVCAR-4 it was > 100 µM (inactive); in the assay on MDA-MB-231, > 100 µM (inactive); in the assay with SR, 64.4 µM (inactive); in the assay on HL-60, 87.5 µM (inactive); in the assay on IGROV-1, > 100 µM (inactive). Moreover, the GI50 was 30.8 µM (inactive) in the assay on UACC-257; > 100 µM (inactive) with 786-0; > 100 µM (inactive) in the assay with CAKI-1; > 100 µM (inactive) in the assay on UACC-62; 43.3 µM (inactive) in the assay with OVCAR-8; 17.6 µM (inactive) in the assay on PC-3. Moreover, the GI50 was 90.6 µM (inactive) in the assay on NCI-H226 and 54.3 µM (inactive) in the assay on NCI-H522.
